Data from patent US12599561B2, “Localized immunosuppression of allografts for peripheral nerve repair” (UNIVERSITY OF WYOMING, priority 2018, dated 2026).

Key:
immune cells = conditions: cited from earlier work
[1] = tested on: DRGs, motor neurons, and Schwann cells; conditions: 72 h
Procedure: It is contemplated that delivery of immunosuppressive agents function within a favorable therapeutic window. PNs are comprised of three major nervous system cell types, motor neurons, sensory neurons, and Schwann cells. […] FIG. 1B illustrates data regarding the toxicity of tacrolimus to DRGs, motor neurons, and Schwann cells. FIG. 1C illustrates data regarding the toxicity of prednisolone to DRGs, motor neurons, and Schwann cells.
Cells (DRGs, motor neurons, and Schwann cells) were cultured for 72 hours in various concentration of the immunosuppressive drugs and viability was evaluated using the Alamar blue viability assay. ISV's were diluted into media using a maximum of 1% dimethylsulfoxide (DMSO).
FIG. 2B illustrates data regarding the viability of DRGs, motor neurons, and Schwann cells cultured in about 10 μM tracrolimus with differing concentrations of prednisolone.

For C[C@]12C=CC(=O)C=C1CC[C@@H]1[C@@H]2[C@@H](O)C[C@@]2(C)[C@H]1CC[C@]2(O)C(=O)CO [Prednisolone, prednisolone], the “effective dose for inhibiting activation and proliferation of immune cells” value (immune cells) is given as “greater than 240 μM”, the “in vitro effective concentration on immune cells” value (immune cells) is given as 240 nM and the “Measures in vitro tolerated concentrations on PN cells” value [1] is given as 200 µM. The “dose tolerated by the cells (up to)” value [1] was “about 200 μM”.
In the case of C=CC[C@@H]1/C=C(\C)C[C@H](C)C[C@H](OC)[C@H]2O[C@@](O)(C(=O)C(=O)N3CCCC[C@H]3C(=O)O[C@H](/C(C)=C/[C@@H]3CC[C@@H](O)[C@H](OC)C3)[C@H](C)[C@@H](O)CC1=O)[C@H](C)C[C@@H]2OC [Tacrolimus, tacrolimus], the “effective dose for inhibiting activation and proliferation of immune cells” value (immune cells) is listed as 50 to 100 µM, the “in vitro effective concentration on immune cells” value (immune cells) is listed as 0.5 to 1.0 nM and the “Measures in vitro tolerated concentrations on PN cells” value [1] is listed as 10 to 25 µM. The “dose tolerated by the cells (up to)” value [1] was 10 to 25 µM.
